The text below walks through data of US20260265216A1, “NOVEL THIOREDOXIN REDUCTASE INHIBITORS” (GENEXPLAIN GMBH, priority 2021, published 2026).

In assay [1] the target is T1, TrxR1 in HCT116 and MCF7 cells (Homo sapiens, UniProt Q16881).
T1 construct: endogenous in cells; host or cells: MCF7; HCT116
T1 sequence (Q16881 1-499 isoform Q16881-5): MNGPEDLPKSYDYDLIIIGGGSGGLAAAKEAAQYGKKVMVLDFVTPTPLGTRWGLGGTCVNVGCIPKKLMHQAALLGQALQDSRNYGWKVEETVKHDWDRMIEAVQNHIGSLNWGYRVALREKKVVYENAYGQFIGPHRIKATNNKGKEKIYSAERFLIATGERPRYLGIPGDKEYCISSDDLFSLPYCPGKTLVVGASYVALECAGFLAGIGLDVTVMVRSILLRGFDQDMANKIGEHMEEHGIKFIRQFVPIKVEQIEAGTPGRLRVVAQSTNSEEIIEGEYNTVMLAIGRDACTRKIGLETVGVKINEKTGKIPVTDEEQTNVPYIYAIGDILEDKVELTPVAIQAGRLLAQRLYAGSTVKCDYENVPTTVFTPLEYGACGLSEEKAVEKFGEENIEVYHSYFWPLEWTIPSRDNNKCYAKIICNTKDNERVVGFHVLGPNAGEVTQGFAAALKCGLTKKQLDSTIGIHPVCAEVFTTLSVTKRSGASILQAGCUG
The experiment in a line: Detection of TrxR dimers by Western blot. The class given is cell-based. Conditions: 5 μM, detected as soon as 2 h. Here is the method:
The extraction of total cell lysates and western blot were performed according to standard procedure. The antibodies used for immunoblotting were: p53 (sc-126, Santa Cruz Biotechnology), γH2AX (#07-164, Millipore), TrxR1 19A1 (AbFrontier). Anti-β-actin monoclonal antibody (Millipore) was used as loading control. The horseradish peroxidase-coupled secondary antibodies (Jackson ImmunoResearch) and SuperSignal™ West Dura Extended Duration Substrate detection system (Thermo Fischer Scientific), and images were visualized using ChemiDoc Imaging System (Bio-Rad).
MCF7 or HCT116 cells were treated in culture with 5 or 10 μM of 1d*HCl (Example 4) in complete medium for 2 h or 6 h. For each case, duplicate drug treated samples were produced plus duplicate control treatment samples using equal volumes of the drug vehicle dimethyl sulfoxide. Detached cells from each biological replicate were washed, suspended in PBS containing protease inhibitors and cells lysed through freeze thaw cycles in liquid N2, according to the reference protocol. Soluble fraction was separated from precipitated protein by ultracentrifugation at 100000 g for 30 minutes at 4° C. and TrxR1 dimer formation was analysed using Western blot as described above. […]
A general note: A western blot detects proteins with antibodies after separation by electrophoresis.

Assay [2] relates to cancer cells. The experiment in a line: Oxidative stress measurement (DCFH-DA, ROS). The format is cell-based. Here is the method: Cells were treated with compounds and incubated 30 min with 10 μM DCF-DA in serum free medium. Afterward, cells were trypsinized, washed with PBS and fluorescence was analyzed by a FACSCalibur flow cytometer (BD Biosciences) using FL1-H channel.
To get insight into the mechanism of the anti-tumor activity of 1d*HCl, we tested the level of oxidative stress upon treatment. We measured the induction of reactive oxygen species (ROS), using 2′-7′-Dichlorodihydrofluorescein diacetate (DCFH-DA)-based assay. […] After 8 h of treatment, the induction of reactive oxygen species (ROS) was much higher.

The test system of assay [3] is cancer cells. The experiment in a line: Cell growth assay, combination with BSO. Conditions: 5 μM 1d*HCl and 50 μM BSO. The format is cell-based. The procedure: Further, we tested whether the inhibition of GR by BSO will have additive effect with 1d*HCl. If 1d*HCl mechanism of action includes inhibition of GR, BSO will not have an additive effect. We used a range of concentrations of 1d*HCl and BSO in cell growth assays. […] Next, we tested whether the prevention of oxidative stress by NAC will affect the growth suppression by the combination of 1d*HCl and BSO. In the presence of NAC we observed the additive effect of 1d*HCl with 50 μM BSO only at twice higher dose of 1d*HCl-10 μM.

Assay [4] has as its target T2, recombinant purified TrxR1 (Homo sapiens, UniProt Q16881).
T2 construct: made in house; host or cells: Release Factor 1-depleted E. coli strain
T2 sequence (Q16881 1-499 isoform Q16881-5): T1 sequence (Q16881 1-499 isoform Q16881-5)
As to the kind of experiment: TrxR1 enzymatic activity measurement in vitro. The format is biochemical. The settings on record: recombinant purified enzyme in vitro. Here is the method:
TrxR1 enzyme was recombinantly produced with high Sec contents in a specific Release Factor 1-depleted E. coli strain and purified as previously described (Arnér E S J, Holmgren A, in Current Protocols in Toxicology, Maines M, Costa L, Reed D, Sassa S, Eds. (John Wiley & Sons, Inc., New York, 2000), pp. 7.4.1-7.4.14). TrxR1 and GSR (Sigma) recombinant enzyme assays were performed in a reaction buffer containing 50 mM Tris pH 7.5 with 2 mM EDTA and 0.1 mg/mL bovine serum albumin as described previously (Arnér E S J, Holmgren A, in Current Protocols in Toxicology, Maines M, Costa L, Reed D, Sassa S, Eds. (John Wiley & Sons, Inc., New York, 2000), pp. 7.4.1-7.4.14). Briefly, assays were performed in triplicate using 96-well plates, with activity inferred from absorbance changes using a Spectra Max plate reader. Results of recombinant enzyme assays were normalized to DMSO and to no enzyme controls.
We used recombinant purified TrxR1 and GR in an in vitro assay as described in methods section.

The next assay concerns B16 melanoma. The experiment in a line: B16 melanoma mouse model. The format is in vivo, C57BL/6 mice. Conditions: 10 mg/kg i.p. every other day for 9 days, day 8 and day 9. Here is the method:
For the B16 melanoma mouse model, 6-weeks-old female C57BL/6 mice were injected subcutaneously with 1×10^6 B16 cells. When the tumors reached 80-120 mm^3, 10 mg/kg of 1d*HCl were administered intraperitoneally every other day for 9 days (days 1, 3, 5, 7, 9). Tumor volume was measured by caliper three times per week, and the volume was calculated based on the formula (in ml): L/10*W/10*W/10*0.44 (L-length, W=width of tumor). Mice were sacrificed when tumors reached 2 cm^3 or upon bleeding.
We tested the anti-tumor activity of 1d*HCl using allogenic model of B16 mice. We inoculated mice with B16 melanoma cells. When the tumors reached 100 mm^3, we treated them with i.p. injection of 1d*HCl, 10 mg/kg every other day for 9 days. […] The differences in tumor volume between untreated control mice and animals treated with 1d*HCl are all statistically significant. Thus, 1d*HCl has in vivo anti-tumor activity in this animal tumor model.

For `Cl.N#Cc1c(-c2cccnc2)[n+]([O-])c2cc(F)c(N3CCOCC3)cc2[n+]1[O-]` [Compound 1d*HCl, 6-Fluoro-7-(morpholin-4-yl)-3-(pyridin-3-yl)quinoxaline-2-carbonitrile-1,4-dioxide hydrochloride], in assay [1], the “formation of TrxR1 covalent dimers (130 kDa band)” value is “induces the formation of TrxR1 covalent dimers”. For the same molecule, the “induction of reactive oxygen species (DCF fluorescence)” value in the assay with cancer cells [2] (2 h after treatment) was “significant increase in DCF fluorescence”. Besides, the “induction of reactive oxygen species (ROS)” value in the assay on cancer cells [2] (after 8 h of treatment) is listed as “much higher”. In addition, the “effect of combination with BSO on cell growth” value in the assay on cancer cells [3] was “have an additive effect and completely eradicated cancer cells”. For the same molecule, in assay [4], the “inhibition of enzymatic activity of TrxR1” value is “efficiently inhibited the enzymatic activity of TrxR1 in a dose- and time-dependent manner”. In addition, the “tumor volume compared to vehicle-treated mice” value with B16 melanoma is on record as “lower volume of tumors”.
